We go through 20 compounds from patent US7199131B2, “Sulfonamide and sulfamide substituted imidazoquinolines” (3M Innovative Properties Company, priority 2001, dated 2007).

The subject of data set [1] is tumor necrosis factor (α). Put plainly: Cytokine Induction in Human Cells: tumor necrosis factor (α) secreted by PBMCs, ELISA. The settings on record: incubated 18 to 24 hours, lowest concentration found to induce tumor necrosis factor. In kind it is cell-based. From the text: (§1) An in vitro human blood cell system was used to assess cytokine induction by compounds of the invention. Activity is based on the measurement of interferon and tumor necrosis factor (α) (IFN and TNF, respectively) secreted into culture media as described by Testerman et. al. In “Cytokine Induction by the Immunomodulators Imiquimod and S-27609”, Journal of Leukocyte Biology, 58, 365–372 (September, 1995).
(§2) Whole blood is collected by venipuncture into EDTA vacutainer tubes from healthy human donors. Peripheral blood mononuclear cells (PBMCs) are separated from whole blood by density gradient centrifugation using Histopaque®-1077 (Sigma Chemicals, St. Louis, Mo.). The PBMCs are suspended at 3–4×10^6 cells/mL in RPMI 1640 medium containing 10% fetal bovine serum, 2 mM L-glutamine and 1% penicillin/streptomycin solution (RPMI complete). The PBMC suspension is added to 48 well flat bottom sterile tissue culture plates (Costar, Cambridge, Mass. or Becton Dickinson Labware, Lincoln Park, N.J.) containing an equal volume of RPMI complete media containing test compound.
(§3) The compounds are solubilized in dimethyl sulfoxide (DMSO). The DMSO concentration should not exceed a final concentration of 1% for addition to the culture wells.
(§4) The solution of test compound is added at 60 μM to the first well containing RPMI complete and serial (three fold or ten fold) dilutions are made. The PBMC suspension is then added to the wells in an equal volume, bringing the test compound concentrations to the desired range. The final concentration of PBMC suspension is 1.5–2×10^6 cells/mL. The plates are covered with sterile plastic lids, mixed gently and then incubated for 18 to 24 hours at 37° C. in a 5% carbon dioxide atmosphere.
(§5) Following incubation the plates are centrifuged for 5–10 minutes at 1000 rpm (˜200×g) at 4° C. The cell culture supernatant is removed with a sterile polypropylene pipette and transferred to sterile polypropylene tubes. Samples are maintained at −30 to −70° C. until analysis. The samples are analyzed for interferon (α) and tumor necrosis factor (α) by ELISA
Tumor necrosis factor (α) (TNF) concentration is determined using ELISA kits available from Genzyme, Cambridge, Mass.; R&D Systems, Minneapolis, Minn.; or Pharmingen, San Diego, Calif.
(§6) The table below lists the lowest concentration found to induce interferon and the lowest concentration found to induce tumor necrosis factor for each compound.

The subject of data set [2] is interferon (α). Put plainly: Cytokine Induction in Human Cells: interferon (α) secreted by PBMCs, ELISA. In kind it is cell-based. Particulars: incubated 18 to 24 hours, lowest concentration found to induce interferon.
Source text: as §1, §2, §3, §4, §5
Interferon (α) concentration is determined by ELISA using a Human Multi-Species kit from PBL Biomedical Laboratories, New Brunswick, N.J.
as §6

Where a name gives a salt, the structure may show the parent alone.

As for `COCCc1nc2c(N)nc3c(c2n1CCCCNS(C)(=O)=O)CCCC3` [Example 214, N-[4-(4-Amino-6,7,8,9-tetrahydro-2-(2-methoxyethyl)-1H-imidazo[4,5-c]quinolin-1-yl)butyl]methanesulfonamide Trifluoroacetate], the values for the minimal effective concentration in data set [1] and in data set [2] were 10 µM and 0.01 µM, respectively.
In the case of `CCc1nc2c(N)nc3ccccc3c2n1CCCCNS(=O)(=O)c1ccccc1` [Example 232, N-[4-(4-amino-2-ethyl-1H-imidazo[4,5-c]quinolin-1-yl)butyl]benzenesulfonamide], the melting point was in the range of 180.6 to 182 °C. The compound also returned a minimal effective concentration in data set [1] (PBMC) of 1.11 µM. Also, the minimal effective concentration in data set [2] (PBMC) worked out at 0.12 µM.
The like results for `CCCc1nc2c(N)nc3ccccc3c2n1CCCCNS(=O)(=O)c1ccccc1` [Example 233, N-[4-(4-amino-2-propyl-1H-imidazo[4,5-c]quinolin-1-yl)butyl]benzenesulfonamide] were, in that order, 158.8 to 160.8 °C, 1.11 µM and 0.37 µM.
`CCCCCCc1nc2c(N)nc3ccccc3c2n1CCCCNS(=O)(=O)c1ccccc1` [Example 234, N-[4-(4-amino-2-hexyl-1H-imidazo[4,5-c]quinolin-1-yl)butyl]benzenesulfonamide] showed a melting point of 84.8 to 85.4 °C. The minimal effective concentration in data set [1] (PBMC) turned out to be 1.11 µM. Further, in data set [2] (PBMC), the minimal effective concentration was 1.11 µM.
For `CCCc1nc2c(N)nc3ccccc3c2n1CCCCNS(C)(=O)=O` [Example 235, N-[4-(4-amino-2-propyl-1H-imidazo[4,5-c]quinolin-1-yl)butyl]methanesulfonamide], the melting point lay within 186.5 to 187.9 °C. Also, in data set [1] (PBMC), the minimal effective concentration is 1.11 µM. The minimal effective concentration in data set [2] (PBMC) stood at 0.04 µM.
With `CCc1nc2c(N)nc3ccccc3c2n1CCCCNS(C)(=O)=O` [Example 236, N-[4-(4-amino-2-ethyl-1H-imidazo[4,5-c]quinolin-1-yl)butyl]methanesulfonamide], the minimal effective concentration was 0.12 µM in data set [1] (PBMC) and 0.01 µM in data set [2] (PBMC).
In turn, `Cc1nc2c(N)nc3ccccc3c2n1CCCCNS(=O)(=O)c1ccccc1` [Example 237, N-[4-(4-amino-2-methyl-1H-imidazo[4,5-c]quinolin-1-yl)butyl]benzenesulfonamide] returned a melting point of 215.4 to 216 °C. The compound also yielded a minimal effective concentration in data set [1] (PBMC) of 0.04 µM. The minimal effective concentration in data set [2] (PBMC) came to 0.37 µM.
As for `Cc1nc2c(N)nc3ccccc3c2n1CCCCNS(C)(=O)=O` [Example 238, N-[4-(4-amino-2-methyl-1H-imidazo[4,5-c]quinolin-1-yl)butyl]methanesulfonanide], the melting point is 229.4 to 230.5 °C. The minimal effective concentration in data set [1] (PBMC) stood at 0.37 µM. This compound came in with a minimal effective concentration in data set [2] (PBMC) of 0.04 µM.
The compound `CCCCc1nc2c(N)nc3ccccc3c2n1CCCNS(C)(=O)=O` [Example 239, N-[3-(4-amino-2-butyl-1H-imidazo[4,5-c]quinolin-1-yl)propyl]methanesulfonamide] gave a melting point of 239.2 to 240.8 °C. The minimal effective concentration in data set [1] (PBMC) worked out at 1.11 µM. This compound also gave a minimal effective concentration in data set [2] (PBMC) of 0.01 µM.
`CCCCc1nc2c(N)nc3ccccc3c2n1CCCNS(=O)(=O)c1ccccc1` [Example 240, N-[3-(4-amino-2-butyl-1H-imidazo[4,5-c]quinolin-1-yl)propyl]benzenesulfonamide] showed a melting point of 210.5 to 212 °C. In addition, the minimal effective concentration in data set [1] (PBMC) amounted to 3.33 µM. Further, the minimal effective concentration in data set [2] (PBMC) came out at 0.37 µM.
For `CCCCCCc1nc2c(N)nc3ccccc3c2n1CCCCNS(C)(=O)=O` [Example 241, N-[4-(4-amino-2-hexyl-1H-imidazo[4,5-c]quinolin-1-yl)butyl]methanesulfonamide], in that order: 170.2 to 171.1 °C, 1.11 µM and 0.12 µM.
Regarding `COCCc1nc2c(N)nc3ccccc3c2n1CCCCCCCCNS(=O)(=O)c1ccccc1` [Example 242, N-{8-[4-amino-2-(2-methoxyethyl)-1H-imidazo[4,5-c]quinolin-1-yl]octyl}benzenesulfonamide], the melting point was in the range of 146 to 149 °C. This compound gave a minimal effective concentration in data set [1] (PBMC) of 0.01 µM. For the same compound, the minimal effective concentration in data set [2] (PBMC) is 0.01 µM.
For `COCCc1nc2c(N)nc3ccccc3c2n1CCCCCCCCNS(C)(=O)=O` [Example 243, N-{8-[4-amino-2-(2-methoxyethyl)-1H-imidazo[4,5-c]quinolin-1-yl]octyl}methanesulfonamide], the melting point lay in the range of 109 to 110 °C. In data set [1] (PBMC), this compound had a minimal effective concentration of 0.01 µM. For the same compound, in data set [2] (PBMC), the minimal effective concentration was found to be 0.01 µM.
In turn, `CCCCc1nc2c(N)nc3ccccc3c2n1CCCCCCCCNS(C)(=O)=O` [Example 244, N-[8-(4-amino-2-butyl-1H-imidazo[4,5-c]quinolin-1-yl)octyl]methanesulfonamide] had a melting point of 121 to 124 °C. In addition, in data set [1] (PBMC), the minimal effective concentration came out at 0.01 µM. In data set [2] (PBMC), this compound came in with a minimal effective concentration of 0.01 µM.
As for `CCCCc1nc2c(N)nc3ccccc3c2n1CCCNS(=O)(=O)c1cccc2c(N(C)C)cccc12` [Example 245, N-[3-(4-amino-2-butyl-1H-imidazo[4,5-c]quinolin-1-yl)propyl]-5-(dimethylamino)naphthalene-1-sulfonamide], the melting point is 216.5 to 217.5 °C. In data set [1] (PBMC), the minimal effective concentration is more than 30 µM. The minimal effective concentration in data set [2] (PBMC) was 3.33 µM.
Compound `CCCCc1nc2c(N)nc3ccccc3c2n1CCCNS(=O)(=O)c1ccc(C)cc1` [Example 246, N-[3-(4-amino-2-butyl-1H-imidazo[4,5-c]quinolin-1-yl)propyl]-4-methylbenzenesulfonamide] registered a melting point of 197 to 198.5 °C. This compound also gave a minimal effective concentration in data set [1] (PBMC) of 3.33 µM. The compound also gave a minimal effective concentration in data set [2] (PBMC) of 1.11 µM.
For `COCCc1nc2c(N)nc3ccccc3c2n1CCCNS(C)(=O)=O` [Example 247, N-{3-[4-amino-2-(2-methoxyethyl)-1H-imidazo[4,5-c]quinolin-1-yl]propyl}methanesulfonamide], in that order: 193 to 194 °C, 0.01 µM and 0.01 µM.
Take `CCCCCc1nc2c(N)nc3ccccc3c2n1CCCCNS(C)(=O)=O` [Example 250, N-[4-(4-amino-2-pentyl-1H-imidazo[4,5-c]quinolin-1-yl)butyl]methanesulfonamide]: the minimal effective concentration came out at 0.12 µM in data set [1] (PBMC) and 0.01 µM in data set [2] (PBMC).
Regarding `CCCCCc1nc2c(N)nc3ccccc3c2n1CCCCNS(=O)(=O)c1ccccc1` [Example 251, N-[4-(4-amino-2-pentyl-1H-imidazo[4,5-c]quinolin-1-yl)butyl]benzenesulfonamide], the minimal effective concentration in data set [1] (PBMC) was 10 µM; in data set [2] (PBMC), 0.12 µM.
With `Cc1nc2c(N)nc3c(c2n1CCCCNS(C)(=O)=O)CCCC3` [Example 263, N-[4-(4-amino-2-methyl-6,7,8,9-tetrahydro-1H-imidazo[4,5-c]quinolin-1-yl)butyl]methanesulfonamide hydrochloride], the minimal effective concentration is more than 30 µM in data set [1] (PBMC) and 0.12 µM in data set [2] (PBMC).
